The source of these data is US20100004238A1, “FUSED HETEROCYCLIC COMPOUND” (TAKEDA PHARMACEUTICAL COMPANY LIMITED, priority 2006, published 2010).

One may read the IC50 as the concentration at which inhibition is half-maximal.

Counter-ions that a name gives are not always drawn.

Assay [1] has as its system human breast cancer cell BT-474. Description: Inhibitory action on breast cancer cell BT-474 proliferation in vitro. The conditions noted are these: 120 h, BT-474 cells, cultured for 5 days with compound, SRB protein content. Format: cell-based. Here is the method:
A suspension of human breast cancer cell BT-474 (100 μl (6,000 cells)) were plated in a 96-well microplate and cultured in an incubator (37° C., 5% carbon dioxide). On the following day, 100 μl of a solution of each test compound previously diluted serially in 2-fold, was added, and the cells were cultured for 5 days. After the culture medium containing the test compound was removed, the cells were washed and fixed with 50% trichloroacetic acid, after which a 0.4% (w/v) SRB dye solution (dissolved in 1% acetic acid) was added to stain as well as fix the cell protein (Skehan et al., Journal of the National Cancer Institute, Vol. 82, pp. 1107-1112, 1990). After washing with a 1% acetic acid solution, 100 μl of extract solution (10 mM, Tris buffer) was added to extract the dye and the absorbance was measured at a wavelength of 550 nm to quantify the amount of cells as protein content. Taking as 100% the protein content for the control group, which received no test compound solution, the ratio of the residual protein content for each treatment group was determined, and the compound concentration required to achieve 50% suppression of the residual cell content relative to the control (IC50 value) was calculated.

Assay [2] has as its target T1, HER2 intracellular domain (HER2 kinase) (Homo sapiens, UniProt P04626).
T1 construct: made in house; host or cells: SF-21 insect cells infected with recombinant baculovirus BAC-HER2
Nature of the assay: Determination of HER2 kinase inhibitory activity. The class given is biochemical. The conditions noted are these: compound at 1.0 μM, poly-Glu:Tyr (4:1) substrate, [γ-32P]ATP, read-out: inhibitory rate (%) at 1.0 μM. How it is done: Human HER2 gene was cloned by RT-PCR using total RNA prepared from MCF7 cells as a template. The primer used for RT-PCR was prepared in consideration of the information of nucleotide sequence (Genbank Accession No. M11730) of HER2 gene by adding a nucleotide sequence encoding DYKDDDD peptide and a restriction enzyme recognition sequence to a nucleotide sequence (corresponding to 2176-3918 of Genbank Accession No. M11730 as a base, 676-1255 amino acids of Genbank Accession No. NP_004439 as a protein) encoding the HER2 intracellular domain region such that the protein contains an N-terminal DYKDDDD peptide tag. The primer nucleotide sequence is shown below.
SF-21 cells were sown at 1×10^6 cells/mL in Sf-900II SFM medium (1 L, Invitrogen) containing 10% fetal bovine serum (trace), 50 mg/L gentamicin (Invitrogen) and 0.1% Pluronic F-68 (Invitrogen), and shaking culture was performed using a 2 L volume Erlenmeyer flask at 27° C., 100 rpm. After culturing for 24 hr, recombinant baculovirus BAC-HER2 (13.4 mL) was added, and the mixture was further cultured for 3 days. The culture medium was centrifuged at 2,000 rpm for 5 min to give virus-infected cells. The infected cells were washed with a phosphate buffered saline (Invitrogen), centrifuged under the same conditions, and the cells were preserved at −80° C. The cryopreserved cells were thawed in ice, suspended in buffer A (50 mM Tris buffer (30 mL, pH 7.4) containing 20% glycerol, 0.15 M NaCl) supplemented with Complete Protease Inhibitor (Boehringer), and ruptured 3 times with a Polytron homogenizer (Kinematica) at 20,000 rpm for 30 sec. The ruptured solution was clarified by centrifugation at 40,000 rpm for 30 min, and filtered with a 0.45 μm filter. The filtrate was passed through a column packed with Anti-FLAG M2 Affinity Gel (4 mL, Sigma-Aldrich) at a flow rate of about 0.5 mL/min. The column was washed with buffer A, and eluted with buffer A containing 100 μg/mL of FLAG peptide. The eluent was concentrated with Vivaspin 20 (Vivascience) having a molecular weight cut off of 30K. The concentrate was purified by gel filtration using Hi Load 16/60 Superdex 200 pg (GE Healthcare Bioscience) equilibrated with buffer A. The fractions containing HER2 intracellular domain were collected and cryopreserved at −80° C.
HER2 kinase reaction was performed using a 96 well plate. As a buffer for kinase reaction, a buffer having a composition of 50 mM Tris-HCl (pH 7.5), 5 mM MnCl2, 2 mM dithiothreitol, 0.01% Tween-20 was used. The compound of the present invention was dissolved in dimethyl sulfoxide (DMSO), and diluted with the kinase reaction buffer so that DMSO concentration would be 0.1% during kinase reaction. This compound solution (10 μL) was mixed with a kinase reaction buffer […] containing HER2 intracellular domain (0.625 μg/mL) obtained in Experimental Example 1B and polypeptide substrate poly-Glu:Tyr (4:1) (Sigma Ltd., 12.5 μg/mL), and the mixture was stood at room temperature for 5 min. Then, a kinase reaction buffer (20 μL) containing 125 μM ATP and 45 μCi/mL [γ-^32P]ATP was added, and the kinase reaction was initiated with 50 μL of the final reaction mixture. A kinase reaction was performed at room temperature for 10 min, and the kinase reaction was quenched by addition of 20% TCA solution (50 μL). The mixture after completion of the reaction was stood at room temperature for 30 min, and acid insoluble fractions in the mixture after completion of the reaction were collected in a 96 well GF/C filter plate (PerkinElmer) using a cell harvester (PerkinElmer). Thereafter, the filter containing the acid insoluble fractions was washed with 3% phosphoric acid solution. After washing, the filter plate was dried at 45° C. for 60 min, and 25 μL of MicroScinti 0 (PerkinElmer) was added. The radioactivity was measured using TopCount (PerkinElmer). HER2 kinase inhibitory rate (%) of the test compound was calculated by the following formula: […]

T1 sequence (P04626 676-1255): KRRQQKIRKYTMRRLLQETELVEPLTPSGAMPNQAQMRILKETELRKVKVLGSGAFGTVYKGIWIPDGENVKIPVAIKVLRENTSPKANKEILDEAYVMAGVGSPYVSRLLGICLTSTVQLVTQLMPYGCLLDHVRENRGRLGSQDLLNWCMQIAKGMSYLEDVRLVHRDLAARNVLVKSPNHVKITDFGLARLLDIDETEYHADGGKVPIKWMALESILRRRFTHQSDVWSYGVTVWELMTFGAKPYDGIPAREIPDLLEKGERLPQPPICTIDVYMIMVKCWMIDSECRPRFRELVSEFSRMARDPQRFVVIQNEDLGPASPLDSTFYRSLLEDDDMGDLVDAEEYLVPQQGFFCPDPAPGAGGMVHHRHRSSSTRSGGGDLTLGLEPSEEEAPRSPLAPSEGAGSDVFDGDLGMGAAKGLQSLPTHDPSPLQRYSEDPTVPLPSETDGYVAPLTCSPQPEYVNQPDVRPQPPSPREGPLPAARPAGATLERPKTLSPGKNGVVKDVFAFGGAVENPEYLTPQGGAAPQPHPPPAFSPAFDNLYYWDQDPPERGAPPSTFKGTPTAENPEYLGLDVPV

Regarding `OCCn1ccc2ncnc(Nc3ccc(Oc4cccc5[nH]ccc45)c(Cl)c3)c21` [Example 10, 2-(4-{[3-chloro-4-(1H-indol-4-yloxy)phenyl]amino}-5H-pyrrolo[3,2-d]pyrimidin-5-yl)ethanol], the IC50 in assay [1] was under 0.1 µM. For the same compound, the inhibition at 1 µM in assay [2] is 99%.
Regarding `CC(C)(C)NC(=O)c1cncc(Oc2ccc(Nc3ncnc4ccn(CCO)c34)cc2Cl)c1` [Example 26, N-(tert-butyl)-5-(2-chloro-4-{[5-(2-hydroxyethyl)-5H-pyrrolo[3,2-d]pyrimidin-4-yl]amino}phenoxy)nicotinamide], the IC50 in assay [1] is under 0.1 µM. Moreover, the inhibition at 1 µM in assay [2] was 100%.
Turning to `O=C1Cc2c(cccc2Oc2ccc(Nc3ncnc4ccn(CCO)c34)cc2Cl)N1` [Example 28, 4-(2-chloro-4-{[5-(2-hydroxyethyl)-5H-pyrrolo[3,2-d]pyrimidin-4-yl]amino}phenoxy)-1,3-dihydro-2H-indol-2-one], the IC50 in assay [1] was under 0.1 µM. Also, the inhibition at 1 µM in assay [2] is 100%.
For `CC(C)(C)NC(=O)c1cccc(Oc2ccc(Nc3ncnc4ccn(CCO)c34)cc2Cl)n1` [Example 29, N-(tert-butyl)-6-(2-chloro-4-{[5-(2-hydroxyethyl)-5H-pyrrolo[3,2-d]pyrimidin-4-yl]amino}phenoxy)pyridine-2-carboxamide], the inhibition at 1 µM in assay [2] was 100%.
On the same count and under the same terms, then `OCCn1ccc2ncnc(Nc3ccc(Oc4cccc5sccc45)c(Cl)c3)c21` [Example 83, 2-(4-{[4-(1-benzothiophen-4-yloxy)-3-chlorophenyl]amino}-5H-pyrrolo[3,2-d]pyrimidin-5-yl)ethanol], with 99%.
For `Cn1ccc2ncnc(Nc3ccc(Oc4cccc5[nH]ncc45)c(Cl)c3)c21` [Example 86, N-[3-chloro-4-(1H-indazol-4-yloxy)phenyl]-5-methyl-5H-pyrrolo[3,2-d]pyrimidin-4-amine], the IC50 in assay [1] is under 0.1 µM.
As for `OCCn1ccc2ncnc(Nc3ccc(Oc4cccc5[nH]ncc45)c(Cl)c3)c21` [Example 95, 2-(4-{[3-chloro-4-(1H-indazol-4-yloxy)phenyl]amino}-5H-pyrrolo[3,2-d]pyrimidin-5-yl)ethanol], the 50% inhibitory concentration (IC50) in assay [1] was under 0.1 µM. Moreover, in assay [2], the inhibition at 1 µM is 100%.
For the compound `CC(C)(CO)C(=O)NCCn1ccc2ncnc(Nc3ccc(Oc4cccc5sccc45)c(Cl)c3)c21` [Example 114, N-[2-(4-{[4-(1-benzothiophen-4-yloxy)-3-chlorophenyl]amino}-5H-pyrrolo[3,2-d]pyrimidin-5-yl)ethyl]-3-hydroxy-2,2-dimethylpropanamide], in assay [1], the IC50 is under 0.1 µM.
For `CC(C)(CO)C(=O)NCCn1ccc2ncnc(Nc3ccc(Oc4cccc5sccc45)c(Cl)c3)c21` [Example 127, N-[2-(4-{[4-(1-benzothiophen-4-yloxy)-3-chlorophenyl]amino}-5H-pyrrolo[3,2-d]pyrimidin-5-yl)ethyl]-3-hydroxy-2,2-dimethylpropanamide tosylate], the inhibition at 1 µM in assay [2] stood at 99%.
Take `CC(C)(O)CC(=O)NCCn1ccc2ncnc(Nc3ccc(Oc4ccc5ccnn5c4)c(Cl)c3)c21` [Example 147, N-[2-(4-{[3-chloro-4-(pyrazolo[1,5-a]pyridin-6-yloxy)phenyl]amino}-5H-pyrrolo[3,2-d]pyrimidin-5-yl)ethyl]-3-hydroxy-3-methylbutanamide hydrochloride]: the IC50 in assay [1] is under 0.1 µM.
In the case of `CC(C)(CO)C(=O)NCCn1ccc2ncnc(Nc3ccc(Oc4ccc5ccnn5c4)c(Cl)c3)c21` [Example 159, N-[2-(4-{[3-chloro-4-(pyrazolo[1,5-a]pyridin-6-yloxy)phenyl]amino}-5H-pyrrolo[3,2-d]pyrimidin-5-yl)ethyl]-3-hydroxy-2,2-dimethylpropanamide methanesulfonate], the inhibition at 1 µM in assay [2] was found to be 100%.
Same read-out and setting: then `CC(C)(CO)C(=O)NCCn1ccc2ncnc(Nc3ccc(Oc4ccn5ccnc5c4)c(Cl)c3)c21` [Example 164, N-[2-(4-{[3-chloro-4-(imidazo[1,2-a]pyridin-7-yloxy)phenyl]amino}-5H-pyrrolo[3,2-d]pyrimidin-5-yl)ethyl]-3-hydroxy-2,2-dimethylpropanamide], with 100%.
Turning to `CC(C)(CO)C(=O)NCCn1ccc2ncnc(Nc3ccc(Oc4ccn5ncnc5c4)c(Cl)c3)c21` [Example 166, N-[2-(4-{[3-chloro-4-([1,2,4]triazolo[1,5-a]pyridin-7-yloxy)phenyl]amino}-5H-pyrrolo[3,2-d]pyrimidin-5-yl)ethyl]-3-hydroxy-2,2-dimethylpropanamide], the IC50 in assay [1] is under 0.1 µM.
As to `CN1C(=O)Cc2c(Oc3ccc(Nc4ncnc5cc(Cl)n(CCO)c45)cc3Cl)cccc21` [Example 170, 4-(2-chloro-4-{[6-chloro-5-(2-hydroxyethyl)-5H-pyrrolo[3,2-d]pyrimidin-4-yl]amino}phenoxy)-1-methyl-1,3-dihydro-2H-indol-2-one], the inhibition at 1 µM in assay [2] amounted to 97%.
